Reference: patent US20230405063A1, “USE OF PROBIOTIC COMPONENT AND PHARMACEUTICAL COMPOSITION CONTAINING PROBIOTIC COMPONENT” (CHENGDU KUACHANGAOPU MEDICAL TECHNOLOGY CO., LTD., priority 2020, published 2023)

What was measured:
Format in all cases: in vivo
[1] = test system: gastric tumor cells (BGC823); experiment: Tumor inhibition in BGC823 tumor-bearing nude mice (Example 5, Table 8); conditions: intratumoral injection once, 150 μl/mouse, 7th day
Source text: (§1) The method for determining the effect of combined drug administration in animal experiments was Burgi method (Burgi Y. Pharmacology; Drug actions and reactions. Cancerres. 1978, 38(2), 284-285). The Burgi method was modified by Zhengjun JIN (Zhengjun JIN, Equal probability and curve and “Q50”, Journal of the Second Shanghai Medical College; 1981, 1, 75-86) with q calculated as: q=EA+B/(EA+EB−EA×EB). In the following examples of the present invention, the combinational pharmaceutical efficacies (drug efficacies) of drug A and drug B co-administration was determined by ratio q of actual pharmaceutical efficacy (drug efficacy)/theoretical pharmaceutical efficacy (drug efficacy) according to Zhengjun JIN method, as follows.
Nude mice were used as experimental subjects, and gastric tumor cells (BGC823) were used as modeling cells, 1×10^5 cells/mouse were injected into the right axilla subcutaneously for transplantation tumor modeling, and the average tumor volume of successfully modeled nude mice was 164.4 mm^3. The model animals were randomly divided into 14 groups, and the drugs according to the pharmacological constitutions in Table 8 were administered via intratumoral injection. Each group was dosed once with an injection volume of 150 μl/mouse; wherein the pharmaceutical compositions of groups 5, 11 were semi-fluid, the pharmaceutical compositions of other groups are liquid. On the 7th day after drug administration, the animals were euthanized, and after dissection, the tumor tissue was taken out to determine the tumor weight, and the tumor inhibition rate (r) was calculated relative to the negative control group. Further, the actual efficacy/expected efficacy ratio q of a drug could also be calculated according to the therapeutic effect (tumor inhibition rate).

[2] = test system: mouse embryonic fibroblasts 3T3; experiment: Local lesion inhibition in 3T3 fibroblast nodule model in nude mice (Example 6, Table 9); conditions: dosed twice at interval of 2 days, 150 μl/mouse/time, 7th day after final administration
Source text: (§2) V=0.5×a×b^2, wherein a and b represent the length and width of the local lesion, respectively; Volume of the local lesion (e.g. tumor):
(§3) Local lesion (e.g., tumor) proliferation rate (R)=TV/CV×100, wherein TV and CV are the local lesion volumes in the study group and negative control group, respectively;
as §1
Nude mice were used as experimental subjects, and mouse embryonic fibroblasts 3T3 were used as modeling cells. 2×10^4 cells/mouse were injected into the right axilla subcutaneously for transplantation nodule modeling, and the average volume of tumor-like nodules in successfully modeled nude mice was 171.5 mm^3. The model animals were randomly divided into […], and the drugs were administered according to Table 9. Each group except for groups 21-24 were administered by intraperitoneal injection, intra-nodal injection. The drugs used in groups 21-24 were a composition of non-local administration dosage form (dosage form that a probiotic component and a co-administration substance could be administered separately). The administration route of series A was: intraperitoneal injection of probiotic component+intra-nodal injection of co-administration substance; and the administration route of series B was: intraperitoneal injection of co-administration substance+intra-nodal injection of probiotic component. Each group was dosed twice at an interval of 2 days, with an injection volume of 150 μl/mouse/time. On the 7th day after the final administration, the volume (V) of local lesions comprising fibroblasts was measured, and the relative local lesion inhibition rates (r′A, r′B) were calculated for series A and series B, respectively, as compared with the negative control group. Further, the actual drug efficacy/expected efficacy ratio q could also be calculated according to the therapeutic effect (local lesion inhibition rate).

[3] = test system: human hepatoma cells (HepG2); experiment: Tumor inhibition in HepG2 tumor-bearing nude mice, probiotic component/methylene blue (Example 7, Table 11); conditions: dosed twice, interval 7 days, 150 μl/mouse/time, 7th day after final administration, probiotic component = inactivated Saccharomyces cerevisiae
Source text: as §1
Nude mice were used as experimental subjects, and human hepatoma cells (HepG2) were used as modeling cells. […] The model animals were randomly divided into 13 groups, and the drugs were administered according to Table 11. […] Each group was dosed twice with an interval of 7 days, and the injection volume was 150 μl/mouse/time. On the 7th day after final administration, the animals were euthanized, and the tumor tissues were taken out after dissection to determine the tumor weight, and the tumor inhibition rate was calculated relative to the negative control group.

[4] = test system: breast cancer 4T1 cells; experiment: Short-term tumor inhibition in 4T1 tumor-bearing BALB/c mice (Example 9, Table 14); conditions: dosed twice, 7th day after final administration
Source text: as §1
BALB/c mice were used as experimental subjects, and breast cancer 4T1 cells were used as modeling cells. 0.5×10^6 cells/mouse were injected into the right axilla subcutaneously for transplantation tumor modeling, and the average tumor volume of successfully modeled nude mice was 160.1 mm^3. The model animals were randomly divided into 21 groups, and the drugs were administered by intravenous injection (series A) and intratumoral injection (series B) according to the drugs and doses in Table 14, respectively. All the drugs administered were aqueous liquids, which were formulated according to the method of Example 1. Each group was dosed twice. On the 7th day after final administration, the animals were euthanized, and the tumor tissues were taken out after dissection to determine the tumor weight, and the tumor inhibition rates rA and rB were calculated relative to the corresponding negative control groups in series A and series B.

[5] = test system: mouse breast cancer 4T1 cells; experiment: Middle-aged and elderly patient model, 4T1 tumors in eight-month-old mice, r′3d/r′21d (Example 14, Table 19); conditions: single intratumoral injection, 50 l/mouse; for Tumor inhibition rate r′3: day 3 after administration; for Tumor inhibition rate r′21: day 21 after administration
Source text: as §2, §3, §1
Eight-month-old mice were used as experimental subjects in the middle-aged and elderly patient model, 0.5×10^5 mouse breast cancer 4T1 cells/mouse were injected into the right axilla subcutaneously for transplantation tumor modeling, and the mean tumor volume of successfully modeled nude mice was 117.3 mm^3. The model animals were randomly divided into 18 groups. Each group was administered once by intratumoral injection according to the drug grouping in Table 19 with an injection volume of 50 l/mouse. The local lesion volume (V) was measured on day 3 and day 21 after drug administration, and the tumor inhibition rates (r′3d, r′21d) were calculated at each of time points relative to the negative control group, and the results were shown in the following Table. The drugs to be administered were prepared according to the conventional preparation method for aqueous solution or according to the preparation method in Example 1. The actual/expected ratio q3d for short-term drug efficacy and the actual/expected ratio […] for medium- and long-term drug efficacy were calculated based on the drug efficacies (r′3d, r′21d) at different times (day 3, day 21), respectively.

| Structure (SMILES) | Tumor inhibition rate r [1] | Tumor weight (x ± s) [1] | V (x ± s), volume of local lesions, series B ([2]; intra-nodal injection) | V (x ± s), volume of local lesions, series A ([2]; intraperitoneal injection) | Tumor inhibition rate [3] | Tumor weight (x ± s) [3] | Tumor weight (x ± s) ([3]; listed as 0.15% methylene blue) | Tumor inhibition rate ([3]; listed as 0.50% methylene blue) | Tumor weight (x ± s) ([3]; listed as 0.50% methylene blue) | Tumor inhibition rate ([3]; listed as 3% methylene blue) | Tumor weight (x ± s) ([3]; listed as 3% methylene blue) | tumor inhibition rate rA ([4]; series A: intravenous injection) | tumor inhibition rate rB ([4]; series B: intratumoral injection) | Tumor inhibition rate r′3 [5] | Tumor inhibition rate r′21 [5] |
| --- | --- | --- | --- | --- | --- | --- | --- | --- | --- | --- | --- | --- | --- | --- | --- |
| CN(C)c1ccc2nc3ccc(=[N+](C)C)cc-3sc2c1 [1% methylene blue, methylene blue] | 12.5% | 0.197 ± 0.062 g | 1.020 ± 0.210 cm^3 | 1.288 ± 0.205 cm^3 | 26.4% | 0.186 ± 0.096 g | 0.227 ± 0.107 g | 17.7% | 0.208 ± 0.115 g | 71.1% | 0.073 ± 0.033 g | 3.7% | 13.4% |  |  |
| OC[C@H]1OC(O)[C@H](O)[C@@H](O)[C@@H]1O (some centres unmarked) [20% glucose aqueous solution] |  |  |  |  |  |  |  |  |  |  |  |  |  | 3.1% | 4.3% |
| OC[C@H]1OC(O)[C@H](O)[C@@H](O)[C@@H]1O (some centres unmarked) [30% glucose aqueous solution] |  |  |  |  |  |  |  |  |  |  |  |  |  | 20.8% | 8.2% |
